For 29 compounds, IC50 results are on record in patent US20250154154A1 (Relay Binney Street, 2nd Floor, priority 2020, published 2025).

Test [1] addresses SRC (Homo sapiens, UniProt P12931). Nature of the test: SRC Biochemical Assay Protocol (microfluidic mobility shift assay, FLPeptide4 substrate). The method in brief: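 Mobility-shift readout of phosphorylated FLPeptide4 (1.5 μM) after 90 min kinase reaction with 50 μM ATP and 0.26 nM SRC in pH 7.4 HEPES buffer. Compounds, tested 0.0017–100 μM, were preincubated 30 min with enzyme and peptide; IC50 from 4-parameter logistic fit versus neutral controls.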

For test [2], the system named is RBE cells. Kind of test: Cell Viability Protocol (CellTiterGlo), RBE cells. Type of test: cell-based. The note with it: RBE or SNU-1079 cells, 72 or 120 hour, cell line and time not given. The method in brief:
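After 72 h or 120 h compound exposure at 37° C, viability was read by CellTiterGlo as % of DMSO vehicle, with IC50 fitted by a 4-parameter curve. Cells had been seeded at 1200/well in 10% FBS RPMI 1640 and allowed 24 h before dosing.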
On the technique in general: ATP-based viability assays read luminescence as a measure of living cells.

Test [3] concerns phospho-S6RP (Ser 235/236) in RBE cells. Nature of the test: Cellular Proliferation Protocol (cellular phospho-S6RP HTRF), RBE cells. Format: cell-based. The conditions noted are these: 6 hours treatment, RBE or SNU-1079 cells, cell line not given. Summed up: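 Phospho-S6RP (Ser 235/236) was quantified by HTRF in lysed RBE cells (2000/well) after a 6 h treatment at 37° C, with overnight antibody incubation at room temperature. IC50 values came from 4-parameter dose-response fits relative to DMSO vehicle.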

Each structure is given as a SMILES string.

Sequence of SRC (P12931 whole entry, species assumed): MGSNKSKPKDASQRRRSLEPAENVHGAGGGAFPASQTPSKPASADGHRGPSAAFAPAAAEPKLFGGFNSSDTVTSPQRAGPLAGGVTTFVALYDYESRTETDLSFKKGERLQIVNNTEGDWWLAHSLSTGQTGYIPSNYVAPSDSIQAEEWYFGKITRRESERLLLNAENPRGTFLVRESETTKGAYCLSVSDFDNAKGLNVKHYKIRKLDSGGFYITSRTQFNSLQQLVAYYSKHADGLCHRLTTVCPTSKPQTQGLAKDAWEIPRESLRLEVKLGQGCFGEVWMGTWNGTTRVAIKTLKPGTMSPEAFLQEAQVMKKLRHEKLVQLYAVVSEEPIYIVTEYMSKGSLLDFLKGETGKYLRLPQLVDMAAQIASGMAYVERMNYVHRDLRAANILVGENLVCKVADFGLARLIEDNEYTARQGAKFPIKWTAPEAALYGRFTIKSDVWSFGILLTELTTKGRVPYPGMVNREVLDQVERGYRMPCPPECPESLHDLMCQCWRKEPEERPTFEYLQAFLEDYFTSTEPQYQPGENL

What is called IC50 is the point on the concentration scale where inhibition reaches its midpoint. Consider `C=CC(=O)N1C[C@@H]2[C@@H](C#Cc3c(-c4ccc(Oc5cccc(C)n5)cc4)c4c(N)ncnc4n3C)[C@@H]2C1` [II-206, 1-[(1R,5S,6S)-6-[2-(4-amino-7-methyl-5-[4-[(6-methylpyridin-2-yl)oxy]phenyl]-7H-pyrrolo[2,3-d]pyrimidin-6-yl)ethynyl]-3-azabicyclo[3.1.0]hexan-3-yl]prop-2-en-1-one], for which the IC50 in test [1] was 10 to 1000 nM; in test [2], at most 10 nM; in test [3] (6 h), at most 10 nM.
In the case of `C=CC(=O)N1CC[C@H](N2CC(C#Cc3c(-c4ccc(Oc5ccccc5)cc4)c4c(N)ncnc4n3C)C2)[C@H](F)C1` [II-170, 1-((3R,4S)-4-(3-((4-amino-7-methyl-5-(4-phenoxyphenyl)-7H-pyrrolo[2,3-d]pyrimidin-6-yl)ethynyl)azetidin-1-yl)-3-fluoropiperidin-1-yl)prop-2-en-1-one], the half-maximal inhibitory concentration (IC50) in test [1] is 10 to 1000 nM; in test [2], at most 10 nM; in test [3] (6 h), at most 10 nM.
In the case of `C=CC(=O)N1CC[C@H](N2CC(C#Cc3c(-c4cccc(Cl)c4OC)c4c(N)ncnc4n3C)C2)[C@H](O)C1` [II-266], the IC50 in test [1] lay within 10 to 1000 nM; in test [2], 1000 to 10000 nM; in test [3] (6 h), 1000 to 10000 nM.
For `C=CC(=O)N1CC[C@@H](N2CC(C#Cc3c(-c4ccc(Oc5ccccc5)cc4)c4c(N)ncnc4n3C)C2)[C@@H](F)C1` [II-171, 1-((3S,4R)-4-(3-((4-amino-7-methyl-5-(4-phenoxyphenyl)-7H-pyrrolo[2,3-d]pyrimidin-6-yl)ethynyl)azetidin-1-yl)-3-fluoropiperidin-1-yl)prop-2-en-1-one], the IC50 in test [1] is 10 to 1000 nM; in test [2] it was at most 10 nM; in test [3] (6 h), at most 10 nM.
Take `C=CC(=O)N1CCC(N2CC(C#Cc3c(-c4ccc(Cl)c(OC)n4)c4c(N)ncnc4n3C)C2)CC1CO` (stereo not drawn) [II-319]: the IC50 in test [1], in test [2] and in test [3] was 10 to 1000 nM in each case.
With `C=CC(=O)N1CC[C@@H](N2CC(C#Cc3c(-c4ccc(OC5(C)CC5)cc4)c4c(N)ncnc4n3C)C2)[C@@H](O)C1` [II-16], the IC50 lay in the range of 1000 to 10000 nM in test [1], 10 to 1000 nM in test [2] and 10 to 1000 nM in test [3] (6 h).
`C=CC(=O)N1CCC(N2CC(C#Cc3c(-c4ccc5c(c4)N(C)CCO5)c4c(N)ncnc4n3C)C2)CC1` [II-107]: the IC50 in test [1], in test [2] and in test [3] was 1000 to 10000 nM in each case.
For the compound `COCCN(C)C/C=C/C(=O)N1C[C@@H]2[C@@H](C#Cc3c(-c4ccc(Oc5cccc(F)c5)cc4)c4c(N)ncnc4n3C)[C@@H]2C1` [II-232, (E)-1-((1R,5S,6s)-6-((4-amino-5-(4-(3-fluorophenoxy)phenyl)-7-methyl-7H-pyrrolo[2,3-d]pyrimidin-6-yl)ethynyl)-3-azabicyclo[3.1.0]hexan-3-yl)-4-((2-methoxyethyl) (methyl)amino)but-2-en-1-one], the IC50 in test [1], in test [2] and in test [3] (6 h) was 10 to 1000 nM throughout.
On to `C=CC(=O)N1CCC(N2CC(C#Cc3c(-c4ccc(Oc5ccccc5)cc4)c4c(N)ncnc4n3C(C)C)C2)CC1` [Example I-44], for which the IC50 in test [1], in test [2] and in test [3] (6 h) was at most 10 nM in each case.
Regarding `C=CC(=O)N1CC[C@@H](N2CC(C#Cc3c(-c4ccc(Cl)cc4)c4c(N)ncnc4n3C)C2)[C@@H](O)C1` [II-26], the IC50 in test [1], in test [2] and in test [3] was 10 to 1000 nM throughout.
As to `CN(C)CCC(=O)N1CCC(C#Cc2c(-c3ccc(Oc4ccccc4)cc3)c3c(N)ncnc3n2C)CC1` [II-188], the IC50 in test [1], in test [2] and in test [3] (6 h) was 10 to 1000 nM throughout.
For the compound `C=CC(=O)N1CCC(N2CC(C#Cc3c(-c4ccc(Cl)c(OC)c4)c4c(N)ncnc4n3CCOC)C2)CC1` [II-87], the concentration for half-maximal inhibition (IC50) in test [1], in test [2] and in test [3] was 10 to 1000 nM in each case.
As for `C=CC(=O)N1CCC(N2CC(F)(C#Cc3c(-c4ccc(Oc5ccccc5)cc4)c4c(N)ncnc4n3C)C2)CC1` [II-176, 1-(4-(3-((4-amino-7-methyl-5-(4-phenoxyphenyl)-7H-pyrrolo[2,3-d]pyrimidin-6-yl)ethynyl)-3-fluoroazetidin-1-yl)piperidin-1-yl)prop-2-en-1-one], the IC50 was 10 to 1000 nM in test [1], at most 10 nM in test [2] and at most 10 nM in test [3] (6 h).
Turning to `Cn1c(C#CC2CCCN(C(=O)/C=C/CN3CCC3)CC2)c(-c2ccc(Oc3ccccc3)cc2)c2c(N)ncnc21` (stereo not drawn) [II-182, (E)-1-(4-((4-amino-7-methyl-5-(4-phenoxyphenyl)-7H-pyrrolo[2,3-d]pyrimidin-6-yl)ethynyl)azepan-1-yl)-4-(azetidin-1-yl)but-2-en-1-one], the IC50 in test [1], in test [2] and in test [3] (6 h) was at most 10 nM each time.
Turning to `Cn1c(C#CC2CC3(C2)CN(C(=O)/C=C/CN2CC(O)C2)C3)c(-c2ccc(Oc3ccccc3)cc2)c2c(N)ncnc21` [II-174, (E)-1-(6-((4-amino-7-methyl-5-(4-phenoxyphenyl)-7H-pyrrolo[2,3-d]pyrimidin-6-yl)ethynyl)-2-azaspiro[3.3]heptan-2-yl)-4-(3-hydroxyazetidin-1-yl)but-2-en-1-one], the IC50 in test [1] was at most 10 nM; in test [2], 10 to 1000 nM; in test [3] (6 h), 10 to 1000 nM.
As for `C=CC(=O)N1CC[C@@H](N2CC(C#Cc3c(-c4ccc(Oc5nccs5)cc4)c4c(N)ncnc4n3C)C2)[C@@H](O)C1` [II-21], the IC50 in test [1], in test [2] and in test [3] was 10 to 1000 nM each time.
With `C=CC(=O)N1CC[C@@H](N2CC(C#Cc3c(-c4ccc(OC)cc4)c4c(N)ncnc4n3C)C2)[C@@H](O)C1` [II-25], the IC50 in test [1], in test [2] and in test [3] was 10 to 1000 nM in each case.
With `C=CC(=O)N1C[C@@H]2[C@@H](C#Cc3c(-c4cc(Cl)ccc4OC)c4c(N)ncnc4n3C)[C@@H]2C1` [II-260], the IC50 in test [1], in test [2] and in test [3] (6 h) was 10 to 1000 nM each time.
Take `C=CC(=O)N1CC[C@@H](N2CC(C#Cc3c(-c4ccc(OC)c(OC)c4)c4c(N)ncnc4n3C)C2)[C@@H](O)C1` [II-76]: the concentration for half-maximal inhibition (IC50) in test [1] lay in the range of 10 to 1000 nM; in test [2], 1000 to 10000 nM; in test [3], 1000 to 10000 nM.
For `CCN(CC)C/C=C/C(=O)N1C[C@@H]2[C@@H](C#Cc3c(-c4ccc(Oc5ccccc5)cc4)c4c(N)ncnc4n3C)[C@@H]2C1` [II-223, (E)-1-((1R,5S,6s)-6-((4-amino-7-methyl-5-(4-phenoxyphenyl)-7H-pyrrolo[2,3-d]pyrimidin-6-yl)ethynyl)-3-azabicyclo[3.1.0]hexan-3-yl)-4-(diethylamino)but-2-en-1-one], the IC50 in test [1], in test [2] and in test [3] (6 h) was 10 to 1000 nM throughout.
As for `C=CC(=O)NCC(=O)N1C[C@@H]2[C@@H](C#Cc3c(-c4c(Cl)ccc5c4OCO5)c4c(N)ncnc4n3C)[C@@H]2C1` [II-39], the IC50 in test [1], in test [2] and in test [3] was at most 10 nM in each case.
`C=CC(=O)N1CCC(N2CC(C#Cc3c(-c4ccc(Oc5ccccc5)cc4)c4c(N)ncnc4n3[C@@H](C)CO)C2)CC1` [II-169, (S)-1-(4-(3-((4-amino-7-(1-hydroxypropan-2-yl)-5-(4-phenoxyphenyl)-7H-pyrrolo[2,3-d]pyrimidin-6-yl)ethynyl)azetidin-1-yl)piperidin-1-yl)prop-2-en-1-one]: the IC50 in test [1] is 10 to 1000 nM; in test [2], at most 10 nM; in test [3] (6 h) it was at most 10 nM.
For the compound `C=CC(=O)N1CCC(N2CC(C#Cc3c(-c4ccc(OC5COC5)cc4)c4c(N)ncnc4n3C(C)C)C2)CC1` [II-88], the concentration for half-maximal inhibition (IC50) in test [1], in test [2] and in test [3] was 1000 to 10000 nM in each case.
Turning to `C=CC(=O)N1C[C@@H]2[C@@H](C#Cc3c(-c4ccc(Oc5ccccc5)cc4OC)c4c(N)ncnc4n3C3CCOC3)[C@@H]2C1` (mixture of isomers) [II-40], the IC50 in test [1], in test [2] and in test [3] was at most 10 nM throughout.
Take `C=CC(=O)N1CCC(N2CC(C#Cc3c(-c4ccc(C5CC5)c(OC)c4)c4c(N)ncnc4n3C)C2)CC1` [II-97]: the IC50 in test [1], in test [2] and in test [3] was 10 to 1000 nM each time.
On to `C=CC(=O)N1CCC(N2CC(C#Cc3c(-c4ccc(Oc5ccccc5)cn4)c4c(N)ncnc4n3C)C2)CC1` [II-313], for which the IC50 in test [1], in test [2] and in test [3] was 10 to 1000 nM each time.
Consider `C=CC(=O)N1CC[C@H](N2CC(C#Cc3c(-c4cccc5c4OCO5)c4c(N)ncnc4n3C(C)C)C2)[C@H](F)C1` [II-110], for which the IC50 is at most 10 nM in test [1], 10 to 1000 nM in test [2] and at most 10 nM in test [3].
As for `C=CC(=O)N1CCC(C#Cc2c(-c3ccc(Oc4ccccc4)cc3)c3c(N)ncnc3n2C(C)CO)CC1` (stereo not drawn) [Example I-27], the IC50 in test [1] was 10 to 1000 nM; in test [2] it was 10 to 1000 nM; in test [3] (6 h) it was at most 10 nM.
Regarding `C=CC(=O)N1CCC(O)(C#Cc2c(-c3ccc(Oc4ccccc4)cc3)c3c(N)ncnc3n2C(C)C)CC1` [Example I-25], the IC50 in test [1], in test [2] and in test [3] (6 h) was at most 10 nM throughout.
